14 compounds from ChEMBL document CHEMBL1129801, “3-Benzyloxy-2-phenylpiperidine NK1 antagonists: the influence of alpha methyl substitution” (Bioorg Med Chem Lett, 1997) can be followed below.

Structures are written as SMILES.

For assay [1], the target named is Substance-P receptor (Rattus norvegicus, UniProt P14600). The assay is described as follows: […]. In kind it is functional, microsomes, Liver, Microsome.
Assay [2] can be described thus: Compound was tested in vivo for the ability to antagonise extravasation induced by the administration. The following applies: read-out: ID50 (the source's name). In kind it is functional.
The nature of assay [3]: Compound was tested in vivo for the ability to antagonise extravasation induced by the administration. In kind it is functional.
Assay [4] in a line: (§1) Compound was tested in vivo for the ability to antagonise extravasation induced by the administration at 1 mg/kg po. It is filed as functional.
The nature of assay [5]: as §1. It is filed as functional. The source holds these as a separate data set.

Sequence of Substance-P receptor (P14600 whole entry): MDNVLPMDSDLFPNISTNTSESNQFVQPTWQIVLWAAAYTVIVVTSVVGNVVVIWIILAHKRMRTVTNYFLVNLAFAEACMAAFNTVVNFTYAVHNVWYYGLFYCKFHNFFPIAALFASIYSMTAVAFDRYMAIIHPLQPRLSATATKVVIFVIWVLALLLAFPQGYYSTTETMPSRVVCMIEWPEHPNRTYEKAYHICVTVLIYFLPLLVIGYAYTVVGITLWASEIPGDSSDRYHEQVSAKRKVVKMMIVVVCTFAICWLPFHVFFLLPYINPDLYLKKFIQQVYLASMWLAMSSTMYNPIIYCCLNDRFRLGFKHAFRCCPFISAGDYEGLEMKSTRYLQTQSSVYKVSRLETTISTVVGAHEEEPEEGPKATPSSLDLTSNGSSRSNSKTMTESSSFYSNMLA

One may read the IC50 as the midpoint of a concentration-inhibition curve. With `c1ccc(CO[C@H]2CCCN[C@H]2c2ccccc2)cc1`, in assay [1], the concentration for half-maximal inhibition (IC50) worked out at 160 nM.

Turning to `C[C@@H](O[C@H]1CCCN(Cc2n[nH]c(O)n2)[C@H]1c1ccccc1)c1cc(Cl)cc(Cl)c1`, the IC50 in assay [1] was 0.09 nM. Besides, the ED50 in assay [2] was over 0.1 mg/kg.

For orientation: Inhibition means the relative decrease from the control value, in per cent. High values mean a response far below the control, low ones a response near the control. The inhibition in vivo is the share of the control response that was lost under treatment. As to `C[C@@H](O[C@H]1CCCN(Cc2nc[nH]n2)[C@H]1c1ccccc1)c1cc(C(F)(F)F)cc(C(F)(F)F)c1`, in assay [1], the half-maximal inhibitory concentration (IC50) worked out at 0.16 nM. The ED50 in assay [2] worked out at 0.06 mg/kg. This compound showed an Inhibition in assay [3] of 12%. For the same compound, testing at 1 mg/kg in assay [4] gave an inhibition in vivo of 78%.

For `C[C@@H](O[C@H]1CCCN[C@H]1c1ccccc1)c1cc(C(F)(F)F)cc(C(F)(F)F)c1`, half-maximal inhibition in assay [1] (IC50) was put at 0.15 nM. That is a sub-nanomolar value.

`C[C@@H](O[C@H]1CCCN[C@H]1c1ccccc1)c1cc(Cl)cc(Cl)c1` came in with a concentration for half-maximal inhibition (IC50) in assay [1] of 0.91 nM.

Turning to `C[C@@H](O[C@H]1CCCN[C@H]1c1ccccc1)c1ccccc1`, half-maximal inhibition in assay [1] (IC50) required 86 nM.

With `C[C@H](O[C@H]1CCCN[C@H]1c1ccccc1)c1ccccc1`, the 50% inhibitory concentration (IC50) in assay [1] is over 10000 nM.

As for `FC(F)(F)c1cc(CO[C@H]2CCCN[C@H]2c2ccccc2)cc(C(F)(F)F)c1`, half-maximal inhibition in assay [1] (IC50) was put at 0.8 nM.

For `C[C@H](O[C@H]1CCCN[C@H]1c1ccccc1)c1cc(C(F)(F)F)cc(C(F)(F)F)c1`, the concentration for half-maximal inhibition (IC50) in assay [1] was found to be 87 nM.

In the case of `C[C@@H](O[C@H]1CCCN(Cc2n[nH]c(=O)[nH]2)[C@H]1c1ccccc1)c1ccccc1`, inhibition in assay [1] was half-maximal at 5.9 nM (IC50). This IC50 is about 15-fold lower than that of the compound before.

On to `C[C@H](O[C@H]1CCCN[C@H]1c1ccccc1)c1cc(Cl)cc(Cl)c1`, for which 85 nM corresponded to half-maximal inhibition in assay [1] (IC50).

Compound `C[C@H](O[C@H]1CCCN(Cc2n[nH]c(O)n2)[C@H]1c1ccccc1)c1cc(Cl)cc(Cl)c1` registered an IC50 in assay [1] of 25 nM.

Compound `C[C@@H](O[C@H]1CCCN(Cc2n[nH]c(O)n2)[C@H]1c1ccccc1)c1cc(C(F)(F)F)cc(C(F)(F)F)c1` returned an IC50 in assay [1] of 0.16 nM. In addition, the ED50 in assay [2] was determined as 0.026 mg/kg. Besides, the values for the inhibition in vivo at 1 mg/kg in assay [5] and in assay [4] were 66% and 97%, respectively.

`FC(F)(F)c1cc(CO[C@H]2CCCN(Cc3nc[nH]n3)[C@H]2c2ccccc2)cc(C(F)(F)F)c1` gave a 50% inhibitory concentration (IC50) in assay [1] of 0.18 nM. In addition, the ED50 in assay [2] amounted to 0.034 mg/kg. In addition, the Inhibition in assay [3] was determined as 0%. The compound also returned an inhibition in vivo at 1 mg/kg in assay [4] of 55%.
